Reference: ChEMBL document CHEMBL2016478, “Lead optimisation of the N1 substituent of a novel series of indazole arylsulfonamides as CCR4 antagonists and identification of a candidate for clinical investigation” (Bioorg Med Chem Lett, 2012)
In brackets after ≈: the same amount, converted by molar mass.

How the values were obtained:
[1] = Oral bioavailability in beagle dog at 1.1 mg/kg; assay type: ADME, organism-based, Canis lupus familiaris; conditions: in vivo
[2] = Volume of distribution at steady state in CD rat at 1 mg/kg, iv and 1 mg/kg, po; assay type: ADME, organism-based; conditions: in vivo, read-out: Vdss
[3] = Solubility of the compound by chemiluminescent nitrogen detection assay; assay type: physicochemical
[4] = Permeability across MDCK cells; assay type: ADME, cell-based, Canis lupus familiaris; conditions: dog, read-out: permeability
[5] = Volume of distribution at steady state in beagle dog at 0.54 mg/kg, iv and 1.1 mg/kg, po; assay type: ADME, organism-based, Canis lupus familiaris; conditions: in vivo, read-out: Vdss
[6] = Oral bioavailability in CD rat at 1 mg/kg; assay type: ADME, organism-based; conditions: in vivo
[7] = molecular target: T1, C-C chemokine receptor type 4 (Homo sapiens, UniProt P51679); assay: Antagonist activity at human CCR4 expressed in CHO membranes assessed as inhibition of [35S]-GTPgammaS binding by scintillation counting; assay type: functional, cell membranes
T1 sequence (P51679 whole entry): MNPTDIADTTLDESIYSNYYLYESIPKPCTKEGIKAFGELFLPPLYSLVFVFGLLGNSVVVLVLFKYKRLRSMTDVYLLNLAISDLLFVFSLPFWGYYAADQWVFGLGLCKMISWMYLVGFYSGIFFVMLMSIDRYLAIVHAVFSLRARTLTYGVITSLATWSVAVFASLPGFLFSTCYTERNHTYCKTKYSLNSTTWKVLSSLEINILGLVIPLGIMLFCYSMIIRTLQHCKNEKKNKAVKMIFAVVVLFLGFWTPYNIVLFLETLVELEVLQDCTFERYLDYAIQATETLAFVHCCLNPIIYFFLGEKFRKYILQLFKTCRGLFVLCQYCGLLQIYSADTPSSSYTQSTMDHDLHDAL

[8] = molecular target: T1, C-C chemokine receptor type 4
Description: Displacement of [125I]TARC from human CCR4 expressed in CHO membranes by SPA

[9] = molecular target: T1, C-C chemokine receptor type 4; assay: Antagonist activity at human CCR4 in human whole blood assessed as inhibition of TARC-induced CD4+ CCR4+lymphocyte chemotaxis measuring F-actin content; assay type: functional, tissue-based; conditions: read-out: pA2 (converted)
[10] = Volume of distribution at steady state in beagle dog at […], iv and 1.1 mg/kg, po; assay type: ADME, organism-based, Canis lupus familiaris; conditions: in vivo, read-out: Vdss
[11] = test system: Rattus norvegicus; assay: Clearance in CD rat at 1 mg/kg, iv and 1 mg/kg, po relative to liver blood flow; assay type: ADME, organism-based; conditions: in vivo
[12] = Clearance in beagle dog at […], iv and 1.1 mg/kg, po; assay type: ADME, organism-based, Canis lupus familiaris; conditions: in vivo
[13] = Clearance in CD rat at 1 mg/kg, iv and 1 mg/kg, po; conditions: in vivo
[14] = test system: Canis familiaris; assay: Clearance in beagle dog at […], iv and 1.1 mg/kg, po relative to liver blood flow; assay type: ADME, organism-based, Canis lupus familiaris; conditions: in vivo

solubility [3] [mg/mL] | IC50 [7] [µM] | Ki [8] [µM] | Kb [9] [µM] | Compound | further results
0.124 (≈ 246 µM) |  |  |  | COc1cccc2c1c(NS(=O)(=O)c1ccc(Cl)s1)nn2Cc1cccc(CNC(C)=O)c1 | bioavailability [1]: 49%; Vd [2]: 0.57 L/kg; Papp [4]: 254 nm/s; Vd [5]: 3.2 L/kg; bioavailability [6]: 100%
0.074 (≈ 159 µM) | 0.324 | 0.251 |  | COc1cccc2c1c(NS(=O)(=O)c1ccc(Cl)s1)nn2Cc1ccccc1CO | 
0.017 (≈ 36.7 µM) | 0.0912 | 0.1 | 1 | COc1cccc2c1c(NS(=O)(=O)c1ccc(Cl)s1)nn2Cc1cccc(CN)c1 | 
0.151 (≈ 291 µM) | 0.129 |  |  | COc1cccc2c1c(NS(=O)(=O)c1ccc(Cl)s1)nn2Cc1cccc(CN(C)C(C)=O)c1 | 
0.146 (≈ 273 µM) | 0.0126 | 0.00794 | 0.631 | COc1cccc2c1c(NS(=O)(=O)c1ccc(Cl)s1)nn2Cc1cccc(CNC(=O)C(C)O)c1 (centres undefined) | 
0.167 (≈ 321 µM) | 0.0275 | 0.0158 | 2 | COc1cccc2c1c(NS(=O)(=O)c1ccc(Cl)s1)nn2Cc1cccc(CNC(=O)CO)c1 | 
0.012 (≈ 25.9 µM) | 0.158 | 0.126 |  | COc1cccc(Cn2nc(NS(=O)(=O)c3ccc(Cl)s3)c3c(OC)cccc32)c1 | 
0.001 (≈ 2.3 µM) | 0.389 | 0.251 | 6.31 | COc1cccc2c1c(NS(=O)(=O)c1ccc(Cl)s1)nn2Cc1ccccc1 | 
0.14 (≈ 294 µM) | 0.055 | 0.0398 | 1.58 | COc1cccc2c1c(NS(=O)(=O)c1ccc(Cl)s1)nn2Cc1cccc(C(N)=O)c1 | 
0.167 (≈ 340 µM) | 0.0794 | 0.316 |  | CNC(=O)c1cccc(Cn2nc(NS(=O)(=O)c3ccc(Cl)s3)c3c(OC)cccc32)c1 | 
0.16 (≈ 317 µM) |  |  |  | COc1cccc2c1c(NS(=O)(=O)c1ccc(Cl)s1)nn2Cc1cccc(C(=O)N(C)C)c1 | 
0.162 (≈ 295 µM) | 0.0148 | 0.01 | 0.631 | COc1cccc2c1c(NS(=O)(=O)c1ccc(Cl)s1)nn2Cc1cccc(CNC(=O)C(C)(C)O)c1 | Vd [10]: 2.2 L/kg; bioavailability [1]: 97%; CLH [11]: 18%; Vd [2]: 1.9 L/kg; clearance [12]: 0.54 L/h/kg; clearance [13]: 0.9 L/h/kg; CLH [14]: 29%; Papp [4]: 132 nm/s; bioavailability [6]: 85%
0.17 (≈ 308 µM) |  |  |  | COc1ccc(COc2nc(Br)cnc2NS(=O)(=O)c2ccc(C)cc2)cc1OCCN(C)C | 
0.123 (≈ 265 µM) | 0.0479 | 0.0501 |  | COc1cccc2c1c(NS(=O)(=O)c1ccc(Cl)s1)nn2Cc1ccc(CO)cc1 | 
0.046 (≈ 93.1 µM) | 0.0229 | 0.02 | 2.51 | COc1ccc(Cn2nc(NS(=O)(=O)c3ccc(Cl)s3)c3c(OC)cccc32)cc1OC | 
0.127 (≈ 274 µM) | 0.0324 | 0.0398 | 6.31 | COc1cccc2c1c(NS(=O)(=O)c1ccc(Cl)s1)nn2Cc1cccc(CO)c1 | 
0.007 (≈ 15.1 µM) |  | 0.251 |  | COc1ccc(Cn2nc(NS(=O)(=O)c3ccc(Cl)s3)c3c(OC)cccc32)cc1 | 
0.012 (≈ 25.9 µM) |  | 0.158 |  | COc1ccccc1Cn1nc(NS(=O)(=O)c2ccc(Cl)s2)c2c(OC)cccc21 | 
0.104 (≈ 206 µM) |  | 0.158 |  | COc1cccc2c1c(NS(=O)(=O)c1ccc(Cl)s1)nn2Cc1ccc(CNC(C)=O)cc1 | 
